Results from patent US4599336A, “Derivatives of (E)-3-(4-oxo-4H-quinazolin-3-yl)-2-propenamide” (Hoffmann-La Roche Inc., priority 1983, dated 1986).
Where two headings read alike, the source gives them in different places. Each block holds one compound with its values, some of them ahead of it.

How the values were obtained:
[1] = molecular target: T1, PAF receptor (dog platelets) (Canis lupus familiaris, UniProt A0A8I3NSH0); test: PAF Radioreceptor Binding Assay; settings: 3H-PAF
T1 construct: followed by 2×10^7 dog platelets; from tissue; host or cells: dog platelets, washed, intact
T1 sequence (A0A8I3NSH0 1-343): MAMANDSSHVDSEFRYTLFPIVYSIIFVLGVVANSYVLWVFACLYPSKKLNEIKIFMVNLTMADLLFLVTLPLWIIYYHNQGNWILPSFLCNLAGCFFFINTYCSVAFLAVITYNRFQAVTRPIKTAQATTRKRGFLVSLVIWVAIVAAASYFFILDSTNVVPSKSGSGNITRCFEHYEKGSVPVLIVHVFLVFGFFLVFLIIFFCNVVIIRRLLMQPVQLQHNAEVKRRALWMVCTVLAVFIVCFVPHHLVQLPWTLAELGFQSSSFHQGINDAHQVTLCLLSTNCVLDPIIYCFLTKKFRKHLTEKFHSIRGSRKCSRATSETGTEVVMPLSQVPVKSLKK
Procedure: Platelet rich plasma is prepared by centrifugation of citrate-treated dog blood. Acidification to pH 6.5 with 0.15M citric acid and centrifugation for 10 minutes at 1000 g yields a platelet pellet which is then washed by resuspension in EDTA-Phosphate Buffered Saline (PBS) and recentrifuged. The washed platelet preparation is adjusted to 2×10^7 platelets/50 μl in 0.1% BSA-PBS.
To a […] microfuge tube containing 50 μl silicone oil (specific gravity 1.023) is added buffer, PAF standard or analog, or an extract to bring the aqueous volume to 150 μl. 50 μl of ^3 H-PAF (10,000 cpm, 45 Ci/mM) is added followed by 2×10^7 dog platelets. After mixing, incubating for 10 minutes at room temperature, and centrifuging for 1 minute in a Beckman Microfuge B (8000 g), the pellet is removed by clipping off the tip of the tube, solubilizing the platelets with 200 μl of 50% methanol, and counting in 10 ml of Aquasol. […] Results obtained with representative compounds of the present invention in this assay are summarized hereinafter in Table I.

[2] = tested on: SRS-A-induced constriction of the guinea pig ileum; test: Guinea Pig Ileum, In Vitro (inhibition of SRS-A-induced constriction); assay type: cell-based; settings: Cavia porcellus; for IC50: SRS-A-induced constriction, in vitro, read-out: Guinea Pig Ileum, IC50
Procedure: The guinea pig ileum bioassay system has been described by Orange and Austen, Adv. Immunol. […] A 1.5 cm segment is removed from animals weighing 300-400 g. and suspended in an organ bath containing 10 ml. of Tyrodes solution with 10^-6 M atropine sulfate and 10^-6 M pyrilamine maleate. […] The SRS-A utilized in this screen is obtained by challenging chopped lung fragments from actively sensitized guinea pigs with egg albumin, in vitro. A dose-response curve to SRS-A challenge is established for the ileum. […] The drug concentration which inhibits, by 50%, the SRS-A-induced constriction of the guinea pig ileum is determined.

[3] = molecular target: T2, TXA2 synthase (Homo sapiens, UniProt P24557); test: Thromboxane Synthase Inhibition, In Vitro; assay type: biochemical; settings: human platelet microsomes; for inhibition at 0.1 µM: at 10^-7 M
T2 construct: using microsomal fractions from human platelets as enzyme source; from tissue; host or cells: human platelets, microsomal fraction
T2 sequence (P24557 1-533): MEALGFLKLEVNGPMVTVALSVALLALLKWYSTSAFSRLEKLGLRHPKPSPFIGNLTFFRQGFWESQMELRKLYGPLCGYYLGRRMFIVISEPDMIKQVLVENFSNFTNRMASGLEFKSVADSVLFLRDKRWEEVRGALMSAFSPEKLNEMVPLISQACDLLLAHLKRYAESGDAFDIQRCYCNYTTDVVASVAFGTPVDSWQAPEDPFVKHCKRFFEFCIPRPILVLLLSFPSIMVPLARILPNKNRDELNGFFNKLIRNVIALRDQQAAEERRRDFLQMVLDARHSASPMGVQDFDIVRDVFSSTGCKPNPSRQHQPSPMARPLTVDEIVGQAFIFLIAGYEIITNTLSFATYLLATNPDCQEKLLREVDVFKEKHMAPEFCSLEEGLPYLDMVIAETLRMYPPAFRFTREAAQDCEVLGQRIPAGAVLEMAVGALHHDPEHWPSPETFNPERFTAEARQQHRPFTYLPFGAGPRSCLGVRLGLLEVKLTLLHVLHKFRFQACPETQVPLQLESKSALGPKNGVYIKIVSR
Procedure: TXA2 synthase activity is measured by following the conversion of ^14 C-prostaglandin endoperoxide (PGH2) to ^14 C-thromboxane A2 (TXA2) using microsomal fractions from human platelets as enzyme source. In the aqueous incubation medium, the TXA2 decomposes rapidly into TXB2. The amount of TXA2 synthase is adjusted so that under the conditions of the assay approximately 80-90% of the substrate, PGH2, is converted to product in control tubes. To prepare ^14 C--PGH2, ^14 C--AA (50-60 mCi/mmole; Rose Chem.) is incubated with sheep seminal vesicular gland microsomes for 1.5 minutes at 37° C. and then the ^14 C--PGH2 is extracted with diethylether, purified on columns of Sephadex LH-20 or silicic acid, and stored in acetone at -70° C. Incubations are done as follows. Sufficient ^14 C--PGH2 to yield a final substrate concentration of 10 μM (30,000 cpm) is added to the incubation tubes and then the acetone is removed under nitrogen. The tubes are placed in an ice bath and then 215 μl of ice cold phosphate buffered saline, 10 μl of ethanol (control) or of test drug in ethanol, and 25 μl of the microsomal suspension are added with mixing in that order as rapidly as possible. The tubes are incubated at 22° C. for 2 minutes, the reaction is stopped and then the radioactive products and the uncoverted PGH2 are extracted and analyzed by thin layer chromatography. […] The amount of ^14 C--PGH2 converted to products was used as a measure of TXA2 synthase activity. Inhibitors were tested initially at a final concentration of 100 μM. Results obtained with representative compounds of the present invention in this assay are summarized hereafter in Table I.

[4] = molecular target: T3, Δ^5 -Lipoxygenase (Rattus norvegicus, UniProt P12527); test: Δ^5 -Lipoxygenase Inhibition; assay type: biochemical; settings: at 10^-5 M; RBL-1 cell supernatant
T3 construct: using rat basophil leukemia cells (RBL-1 cells) as the enzyme source; endogenous in cells; host or cells: RBL-1 (rat basophil leukemia) cells, 49,300×g supernatant of homogenate
T3 sequence (P12527 1-673): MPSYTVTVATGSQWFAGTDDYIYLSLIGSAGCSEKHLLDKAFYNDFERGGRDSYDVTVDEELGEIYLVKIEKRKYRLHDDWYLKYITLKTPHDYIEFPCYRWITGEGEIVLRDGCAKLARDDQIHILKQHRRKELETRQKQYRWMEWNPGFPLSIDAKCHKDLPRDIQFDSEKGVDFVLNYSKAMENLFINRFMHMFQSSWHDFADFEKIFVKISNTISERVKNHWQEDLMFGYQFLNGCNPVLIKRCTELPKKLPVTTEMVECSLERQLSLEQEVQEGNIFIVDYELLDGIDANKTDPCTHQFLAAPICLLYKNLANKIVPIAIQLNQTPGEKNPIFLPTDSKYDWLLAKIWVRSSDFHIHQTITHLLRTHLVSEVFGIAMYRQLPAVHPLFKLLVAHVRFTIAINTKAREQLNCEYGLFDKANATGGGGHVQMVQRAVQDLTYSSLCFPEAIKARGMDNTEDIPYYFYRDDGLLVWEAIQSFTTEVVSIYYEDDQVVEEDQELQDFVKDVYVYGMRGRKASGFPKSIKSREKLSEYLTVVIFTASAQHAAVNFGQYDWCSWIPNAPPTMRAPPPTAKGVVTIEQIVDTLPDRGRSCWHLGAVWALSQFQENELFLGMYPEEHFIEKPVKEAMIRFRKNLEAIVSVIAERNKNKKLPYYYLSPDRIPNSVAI
Procedure: Δ^5 -Lipoxygenase inhibition was measured by following the conversion of ^14 C-arachidonic acid to ^14 C-5-HETE, using rat basophil leukemia cells (RBL-1 cells) as the enzyme source. These cells were maintained in stationary stock cultures and grown in spinner cultures prior to isolation by centrifugation at 4° C. at 1,500×g for 10 minutes. The cells were washed three times at 4° C. with 0.05M Tris HCl (ph 7.2) containing 1 mM EDTA, 14 μM indomethacin and 0.9% NaCl. They were then homogenized at 0°-4° C. using a glass/glass homogenizer in 0.05M Tris-HCl (pH 7.2) containing 1 mM EDTA and 14 μM indomethacin. The homogenate was then centrifuged at 49,300×g for 20 minutes (0°-4° C.) and the resulting supernatant frozen in small aliquots in a dry ice/acetone bath prior to storage at -80° C. Under these conditions, the enzyme was stable to freezing and thawing and to preincubation for 10 minutes at 30° C.
For enzyme assay, 100-200 μl of enzyme was incubated in the presence and absence of test compound (prepared in DMSO) for 10 minutes at 30° C. in 0.05M Tris-HCl buffer (pH 7.2) containing 1 mM glutathione, 2 mM CaCl2, 14 μM indomethacin and 0.25 and 0.5 mM EDTA (final volume 400 μl). The final DMSO concentration in these assays was 4%. The assay was initiated by the addition of 100 μl ^14 C-arachidonic acid (58 mCi/mmole) and incubations were carried out for 10 minutes at 37° C. in a shaking water bath. The reactions were stopped by the simultaneous addition of 4.0 ml of diethylether and 100 μl of 1.0 m citric acid, while the tubes were vigorously vortexed. The ^14 C-5-HETE generated by the enzyme was extracted into the acidified ether layer which was separated from the aqueous layer by freezing the assay tubes in a dry ice/acetone bath prior to decanting the liquid ether layer. The ether layer was evaporated to dryness under N2, the residue dissolved in 65 μl chloroform:methanol (2:1 v/v), prior to separating ^14 C-5-HETE from other ^14 C-labeled compounds on silica gel impregnated glass fiber TLC plates utilizing an elution solvent of isoctane:methylethylketone:acetic acid (100:9:1 v/v). ^14 C-5-HETE was identified by its co-chromatography with a chemically synthesized standard. The radioactive peaks of the chromatogram were cut out and the radioactivity was quantitated by liquid scintillation counting. The amount of 5-HETE obtained per sample was expressed as the percent of total and was calculated in the basis of: [formula] in order to evaluate the effect of the test compounds, the mean percent inhibition of ^14 C-5-HETE production was calculated. The IC50 for a drug was determined from a linear regression analysis of a plot of the mean percent inhibition vs drug concentration.

[5] = tested on: LTD4-induced blood pressure changes and arrhythmias; test: Leukotriene D4 (LTD4) Induced Arrhythmias in Conscious Guinea Pigs; assay type: in vivo, guinea pig; settings: 10 mg/kg iv, 5 minutes before LTD4; for Peak Hypertension (Δmm Hg): saline control 30 ± 4; for % Arrhythmias: saline control 33 ± 4; for Peak Hypotension (Δmm Hg): saline control -45 ± 4
Procedure: Male Hartley guinea pigs are anesthetized with sodium pentobarbital and prepared for monitoring direct blood pressure and injecting drugs intravenously by catheterizing the right carotid artery and right jugular vein. Blood pressure, heart rate, and Lead II ECG are monitored in the conscious animal 24 hours later.
Intravenous administration of LTD4 (2.5 μg/kg) is associated with an increase in blood pressure lasting approximately 1-2 minutes followed by a decrease lasting approximately 5-15 minutes. Abnormal beats consisting of premature ventricular contractions, ST elevation or depression, atrioventricular conduction block, or dissociated p waves begin during the rise in blood pressure; the peak effect occurs approximately 40 seconds after LTD4. The percent of abnormal beats was quantitated by determining the number present during the first 2 minutes after injection and calculating the percent increase above the control level. During the hypotensive response, the animal usually collapses during the 2nd or 3rd minute after LTD4 and regains posture approximately 10 minutes after LTD4.
Test compounds were administered 5 minutes before the LTD4 challenge and effects on blood pressure and arrhythmias were monitored.

[6] = tested on: LTE4-induced increase of vascular permeability in rat skin; test: Rat Skin Permeability, In Vivo (LTE4-induced wheal); settings: LTE4 intradermal

IC50 [1]: > 1 µM
SMILES: CC(C)c1ccc2ncn(/C=C/C(=O)NCCCCCCc3cccnc3)c(=O)c2c1

inhibition at 0.1 µM [3]: 70% | IC50 [1]: > 1 µM
SMILES: CC(C)c1ccc2ncn(/C=C/C(=O)NCCCCOc3cccnc3)c(=O)c2c1 [drawing 14]
inhibition at 10 µM ([2]; at 10^-5 M): 44%

IC50 [2]: 10 µM | inhibition at 0.1 µM [3]: 31% | inhibition at 10 µM [4]: 56%
SMILES: CC(C)c1ccc2ncn(/C=C/C(=O)NCCSc3ccncc3)c(=O)c2c1

IC50 [2]: 1 µM | inhibition at 0.1 µM [3]: 51%
SMILES: CC(C)c1cc(C(C)C)c2ncn(/C=C/C(=O)NCCCCc3cccnc3)c(=O)c2c1

Second part, the compound before the results:

SMILES: CC(C)c1ccc2ncn(/C=C/C(=O)NCCNCc3cccnc3)c(=O)c2c1
IC50 [2]: 8 µM | inhibition at 1 µM ([3]; at 10^-6 M): 33%

SMILES: CC(C)c1ccc2ncn(/C=C/C(=O)N(C)CCCCc3cccnc3)c(=O)c2c1
IC50 [2]: 10 µM | inhibition at 0.1 µM [3]: 48%

SMILES: CC(C)c1ccc2ncn(/C=C/C(=O)NCCCCc3cccnc3)c(=O)c2c1 [drawing 29]
Peak Hypertension (Δmm Hg) [5]: 21 ± 6 Δmm Hg | % Arrhythmias [5]: 1 ± 1% | Peak Hypotension (Δmm Hg) [5]: -45 ± 4 Δmm Hg

SMILES: CC(C)c1ccc2ncn(/C=C/C(=O)NCCCCn3ccnc3)c(=O)c2c1 [drawing 31]
Peak Hypertension (Δmm Hg) [5]: 10 ± 0 Δmm Hg | % Arrhythmias [5]: 0 ± 3% | Peak Hypotension (Δmm Hg) [5]: -45 ± 8 Δmm Hg

SMILES: CC(C)c1ccc2ncn(/C=C/C(=O)NCCCCn3ccnc3)c(=O)c2c1 [Compound C, N-[4-(1H-imidazol-1-yl)butyl]-(E)-3-[6-(1-methylethyl)-4-oxo-4H quinazolin-3-yl]-2-propenamide]
ED50 ([6]; iv, 0.5 h, i.v., read-out: I.D.50, skin wheal, i.v.): 17 mg/kg | ED50 ([6]; po, read-out: I.D.50, skin wheal, oral): 96 mg/kg

SMILES: CC(C)c1ccc2ncn(/C=C/C(=O)NCCCCCCNc3ccccn3)c(=O)c2c1
IC50 [2]: 5 µM | inhibition at 10 µM [4]: 25%

SMILES: CC(C)c1ccc2ncn(/C=C/C(=O)NCCCCOc3cccnc3)c(=O)c2c1 [drawing 30]
Peak Hypertension (Δmm Hg) [5]: 19 ± 7 Δmm Hg | % Arrhythmias [5]: 0 ± 0% | Peak Hypotension (Δmm Hg) [5]: -42 ± 9 Δmm Hg

SMILES: CC(C)c1ccc2ncn(/C=C/C(=O)NCCCNc3cccnc3)c(=O)c2c1
IC50 [2]: 5 µM | inhibition at 10 µM [4]: 10% | IC50 [1]: > 1 µM
